In patent US6133304A, “ACE inhibitor-MMP inhibitor combinations” (priority 2000, dated 2000):

Assays:
[1] = test system: pigs subjected to rapid pacing; experiment: rapid-paced pig model of heart failure (Example 2); type: in vivo; conditions: for LV End-Systolic Pressure / Pulmonary Vascular Resistance / Systemic Vascular Resistance / Plasma Norepinephrine: Day 21 of pacing, 793 2 mg/kg/day PO, F […] BID PO; for LV End-Systolic Pressure / Pulmonary Vascular Resistance / Systemic Vascular Resistance: pacer off; for LV End-Systolic Pressure / Plasma Norepinephrine: spread printed in the next line; for Pulmonary Vascular Resistance / Systemic Vascular Resistance: spread printed in the next lines; for LV end-diastolic dimension (dilation), in words / LV wall stress, in words: echocardiography, 3-week pacing period
[2] = test system: spontaneously hypertensive heart failure (SHHF) rats; experiment: 8-month progression study in SHHF rats (Example 1); type: in vivo, rat; conditions: for LVEDP (left ventricular end-diastolic pressure) / LVESP (left ventricular end-systolic pressure) / LVV-OP: SHHF rats, 8 months in diet; for LVEDP (left ventricular end-diastolic pressure) / LVESP (left ventricular end-systolic pressure): PD 166793 5 mg/kg/day, quinapril 10 mg/kg/day or both; for LVV-OP: left ventricular pressure volume relations, KCl arrested heart
Protocol: Five groups of rats (n=14 per group) were tested: 17-month-old normotensive Fischer control Rats (F-1 7); vehicle treated 17-month-old SHHF Rats (SHHF-17); PD 166793-0000 (Lot Y) SHHF Rats (SHHF-793); Quinapril (PD 109452-0002, Lot Y) SHHF Rats (SHHF-Q); PD 166793 +Quinapril SHHF Rats (SHHF-793Q). Naive Fischer rats were acclimatized 2 weeks prior to testing. All SHHF rats were maintained in-house, administered drug for 8 months, and then cardiovascular tests were performed and tissue samples taken. The primary endpoint for the study was the prevention of cardiac dilation as determined by left ventricular pressure volume relations in the excised KCI arrested heart.
Drug Administration: All SHHF rats were fed powdered rat chow for 1 week prior to drug administration, and daily food consumption was measured by weighing the foodcups. Drug was added to powdered rat chow so that rats consumed their daily dose of PD 166793 (5 mg/kg/day), quinapril (10 mg/kg/day), or both drugs in combination. Food consumption was monitored twice weekly.
Terminal Cardiovascular Test: Rats were anesthetized with isoflurane for terminal testing. Isoflurane was administered using a mask until the rats are anesthetized and a tracheotomy performed. The rats were respired using a ventilator (A.D.S. 1000, Engler Engineering Corp., Hialeah, Fla.). Cardiac function was assessed in closed-chest rats by measuring LV dP/dt, LV end-diastolic pressure (EDP), heart rate, and aortic blood pressure using a Millar pressure transducer inserted through the right carotid. Physiological data was recorded at 500 Hz, and a logging rate of 5 seconds was used to average data. […] Baseline measurements were made when the rats reached a stable plateau of anesthesia. Normotensive rats had their blood pressure increased by partial occlusion of the aorta so that cardiovascular function could be assessed at a pressure of 180 mmHg, the projected blood pressure of SHHF rats. Approximately 4 to 5 mL of blood were withdrawn in ice-cold syringes and then transferred to ice-cold EDTA tubes. Blood was centrifuged at 4500 RPM for 10 minutes so that plasma could be stored for drug measurements, and measuring collagen breakdown products. The heart was arrested with KCl and rapidly excised. A glass cannula was inserted through the aorta into the LV chamber, and secured into place by a ligature around the atrio-ventricular groove. Cardiac dilation was measured by generating left ventricular pressure volume (PV) curves. The PV curves was generated by evacuating the LV of saline and then filling the LV at a fixed rate using a programmable pump set at a 1 mL/min flow rate. The PV curves were recorded on a Po-Ne-Mah digital data acquisition system. A 2 to 3 mm cross-section of the heart was removed (at the level of the papillary muscles). The remainder of the heart was rapidly divided into RV and LV tissue that was frozen in liquid N2 for subsequent weighing and biochemical analysis. The cross-sections were fixed in buffered formalin for histology. This procedure will allow LV, and RV weights to be determined and hypertrophy to be assessed.

[3] = PD 166793 plasma levels in SHHF rats (Example 1); type: in vivo; conditions: rat, po, 5 mg/kg/day PD 166793 in diet, 8 months
Protocol: Drug Administration: […] Food consumption was monitored twice weekly. Terminal Cardiovascular Test: Rats were anesthetized with isoflurane for terminal testing. Isoflurane was administered using a mask until the rats are anesthetized and a tracheotomy performed. The rats were respired using a ventilator ([…] Engineering Corp., Hialeah, Fla.). Cardiac function was assessed in closed-chest rats by measuring LV dP/dt, LV end-diastolic pressure (EDP), heart rate, and aortic blood pressure using a Millar pressure transducer inserted through the right carotid. Physiological data was recorded at 500 Hz, and a logging rate of 5 seconds was used to average data. […] Baseline measurements were made when the rats reached a stable plateau of anesthesia. […] Approximately 4 to 5 mL of blood were withdrawn in ice-cold syringes and then transferred to ice-cold EDTA tubes. […] The heart was arrested with KCl and rapidly excised. A glass cannula was inserted through the aorta into the LV chamber, and secured into place by a ligature around the atrio-ventricular groove. Cardiac dilation was measured by generating left ventricular pressure volume (PV) curves. […] The PV curves were recorded on a Po-Ne-Mah digital data acquisition system. […] This procedure will allow LV, and RV weights to be determined and hypertrophy to be assessed.

[4] = test system: spontaneously hypertensive heart failure (SHHF) rats; experiment: previous 4-month experiment in SHHF rats; type: in vivo, rat; conditions: for cardiac dilation, in words / left ventricular (LV) systolic function, in words: 4 months
[5] = in vivo; conditions: pig, po, 2 mg/kg/day
[6] = test system: fibroblast; conditions: tissue culture cells; cited from earlier work
[7] = target: MMP-3 (stromelysin) (Homo sapiens, UniProt P08254); experiment: thiopeptolide substrate hydrolysis assay, MMP-3; type: biochemical; conditions: pH 6.0, 22° C., read-out: IC50 MMP3
Sequence of MMP-3 (stromelysin) (P08254 100-272 limits assumed): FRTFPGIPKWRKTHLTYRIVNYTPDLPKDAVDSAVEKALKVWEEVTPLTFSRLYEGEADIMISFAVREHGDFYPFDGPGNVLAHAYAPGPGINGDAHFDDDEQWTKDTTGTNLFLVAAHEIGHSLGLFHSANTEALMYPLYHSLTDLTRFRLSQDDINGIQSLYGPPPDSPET
Protocol: The assays measure the amount by which a test compound reduces the hydrolysis of a thiopeptolide substrate caused by a matrix metalloproteinase enzyme.
Thiopeptolide substrates show virtually no decomposition or hydrolysis in the absence of a matrix metalloproteinase enzyme. A typical thiopeptolide substrate commonly utilized for assays is Ac-Pro-Leu-Gly-thioester-Leu-Leu-Gly-O Et. […] Assays are carried out with and without matrix metalloproteinase inhibitor compounds, and the amount of hydrolysis is compared for a determination of inhibitory activity of the test compounds.

[8] = relative to untreated rapid-paced pigs, FIG. 5

Compound | LV End-Systolic Pressure [1] [mmHg] | Pulmonary Vascular Resistance [1] [dynes*s*cm^-5] | Systemic Vascular Resistance [1] [dynes*s*cm^-5] | Plasma Norepinephrine [1] [pg/mL] | LV end-diastolic dimension (dilation), in words [1] | LV wall stress, in words [1] | LVEDP (left ventricular end-diastolic pressure) [2] [mmHg] | LVESP (left ventricular end-systolic pressure) [2] [mmHg] | LVV-OP [2] [µL] | cardiac dilation, in words [4] | left ventricular (LV) systolic function, in words [4] | also measured
CCC(=O)O[C@@H](O[P@](=O)(CCCCc1ccccc1)CC(=O)N1C[C@H](C2CCCCC2)C[C@H]1C(=O)O)C(C)C [fosinopril] | 100 | 266 | 1529 | 618 | reduce wall stress and end diastolic dimension | reduce wall stress | – | – | – | – | – | systolic function, slope of circumferential velocity over end-systolic stress relation (Vcfc-ES Stress), in words ([1]; compared to nontreated rapid-paced animals, FIG. 4): significantly improved systolic function; LV end-diastolic dimension (dilation), in words ([1]; listed as Fosinopril): more effective than the PD 166793 in reducing dilation; systolic function measured as preload recruitable stroke work (PRSW), in words ([1]; rapid-paced pigs, FIG. 3): improved systolic function to the greatest extent
CC(C)C(NS(=O)(=O)c1ccc(-c2ccc(Br)cc2)cc1)C(=O)O (stereo not shown) [PD 166793, 2-(4'-bromobiphenyl-4-sulfonylamino)-3-methyl-butyric acid] | 110 | 417 | 2784 | 736 | reduce wall stress and end diastolic dimension | reduce wall stress | 18 ± 3 | 188 ± 8 | 820 ± 58 | significantly reducing cardiac dilation | maintaining left ventricular (LV) systolic function | concentration at 5840 h [3]: 50100 ± 7100 ng/mL; LV chamber stiffness, in words [1, 8]: increased both LV chamber stiffness and myocardial stiffness; myocardial stiffness, in words [1, 8]: increased both LV chamber stiffness and myocardial stiffness; mechanism (vasodilator, anti-hypertrophic), in words [4]: neither a vasodilator, nor an anti-hypertrophic; concentration at 1 h [5]: 10800 ± 1200 ng/mL
NNC(=O)c1ccccc1 [Benzoic hydrazide, benzoic hydrazide] | – | – | – | – | – | – | – | – | – | – | – | collagen synthesis, in words [6]: suppress collagen synthesis; fibroblast proliferation, in words [6]: suppress collagen synthesis and fibroblast proliferation
CCOC(=O)[C@H](CCc1ccccc1)N[C@@H](C)C(=O)N1Cc2ccccc2C[C@H]1C(=O)O [quinapril] | – | – | – | – | – | – | 17 ± 4 | 190 ± 7 | 603 ± 99 | A similar effect was also observed | A similar effect was also observed | LV weight, in words ([2]; compared to the vehicle control group): reduced
CC(C)CC(CC(=O)NO)C(=O)N[C@@H](CC(C)C)C(=O)N[C@@H](Cc1ccccc1)C(N)=O (stereo partly shown) [U24522] | – | – | – | – | – | – | – | – | – | – | – | IC50 [7]: 20 nM
